Patent US8497263B2, “Pyrrolinone derivative and pharmaceutical composition comprising the same” (Shionogi & Co., Ltd., priority 2007, dated 2013)

SMILES	melting point
CCC(CC)C1C(C(=O)c2ccc(OC)cc2)=C(O)C(=O)N1c1ccc(-c2noc(C)n2)cc1 (stereo not drawn) [Example I-232]	223 to 225 °C
CCC(CC)C1c2c(-c3ccc(OC)nc3)n[nH]c2C(=O)N1c1ccc(-c2ccon2)cc1 (stereo not drawn) [Example I-211]	226 to 228 °C
CCOC(=O)c1ccc(N2C(=O)C(OCc3ccccc3)=C(C(=NO)c3ccc(OC)cc3)C2c2ccccc2)cc1 (stereo not drawn) [Example I-225]	196 to 201 °C
COc1ccc(C2=NCCNC3=C2C(c2ccc(F)cc2)N(c2ccc(C(F)(F)F)cc2)C3=O)cc1 (stereo not drawn) [Example I-229]	213 to 215 °C
CC(C)(C)C(=O)C1=C(O)C(=O)N(c2ccc(-c3ccon3)cc2)C1C1CCCCC1 (stereo not drawn) [Example I-32, 5-cyclohexyl-4-(2,2-dimethylpropionoyl)-3-hydroxy-1-(4-isoxazol-3-ylphenyl)-1,5-dihydropyrrol-2-one]	259 to 260 °C
CCOC(=O)c1ccc(N2C(=O)/C(=N\O)C(/C(=N\O)c3ccc(OC)cc3)C2c2ccccc2)cc1 (stereo not drawn) [Example I-226]	219 to 221 °C (dec.)
CCC(CC)C1C(C(=O)c2ccc(OC)nc2)=C(O)C(=O)N1c1ccc(-c2ccon2)cc1 (stereo not drawn) [Example I-207]	246 to 249 °C
CCC(CC)C1C(C(=O)c2ccc(=O)[nH]c2)=C(O)C(=O)N1c1ccc(-c2ccon2)cc1 (stereo not drawn) [Example I-208]	> 290 °C
CC(C)(C)c1n[nH]c2c1C(C1CCCCC1)N(c1ccc(C(F)(F)F)cc1)C2=O (stereo not drawn) [Example I-194]	245 to 246 °C
CCC(CC)C1c2c(-c3ccc(=O)[nH]c3)n[nH]c2C(=O)N1c1ccc(-c2ccon2)cc1 (stereo not drawn) [Example I-198, 4-(1-ethylpropyl)-5-(4-isoxazol-3-ylphenyl)-3-(6-oxo-1,6-dihydropyridin-3-yl)-4,5-dihydro-1H-pyrrolo[3,4-c]pyrazol-6-one]	> 290 °C
COc1ccc(C(=NO)C2=C(OCc3ccccc3)C(=O)N(c3ccc(C(F)(F)F)cc3)C2c2ccccc2)cc1 (stereo not drawn) [Example I-250]	197 to 204 °C
COc1ccc(C(=O)C2=C(O)C(=O)N(c3ccc(-c4ccon4)cc3)C2C2CCN(C(=O)OC(C)(C)C)CC2)cc1 (stereo not drawn) [Example I-222]	247 to 249 °C
CO/N=C/c1ccc(N2C(=O)C(O)=C(C(=O)c3ccc(OC)cc3)C2c2ccc(F)cc2)cc1 (stereo not drawn) [Example I-209]	232 to 235 °C
COC1=C(C(=O)C(C)(C)C)C(c2ccccc2OC)N(c2ccc(-c3ccon3)cc2)C1=O (stereo not drawn) [II-156]	136 to 137 °C
CC(C)(C)C(=O)C1/C(=N/O)C(=O)N(c2ccc(-c3ccon3)cc2)C1C1CCCCC1 (stereo not drawn) [Example I-193]	255 to 256 °C
COc1ccc(C(=O)C2=C(O)C(=O)N(c3ccc(-c4noc(C)n4)cc3)C2C2CCCCC2)cc1 (stereo not drawn) [Example I-231]	245 to 248 °C
CCCC(CCC)C1C(C(=O)c2ccc(OC)cc2)=C(O)C(=O)N1c1ccc(-c2ccon2)cc1 (stereo not drawn) [Example I-220]	229 to 231 °C

SMILES	melting point
COc1ccc(C(=O)C2=C(OCc3ccccc3)C(=O)N(c3ccc(C(F)(F)F)cc3)C2c2ccccc2)cc1 (stereo not drawn) [Example I-217]	173 to 174 °C
COc1ccc(C(=O)C2=C(O)C(=O)N(c3ccc(C(F)(F)F)cc3)C2c2ccc(F)cc2)cc1 (stereo not drawn) [Example I-34]	253 to 256 °C (dec.)
CCCC(C)C1C(C(=O)c2ccc(OC)cc2)=C(O)C(=O)N1c1ccc(-c2ccon2)cc1 (stereo not drawn) [Example I-214]	227 to 232 °C
COc1ccc(-c2n[nH]c3c2C(c2ccc(F)cc2)N(c2ccc(C(F)(F)F)cc2)C3=O)cc1 (stereo not drawn) [Example I-228]	217 to 218 °C
CCCCC(CCCC)C1C(C(=O)c2ccc(OC)cc2)=C(O)C(=O)N1c1ccc(-c2ccon2)cc1 (stereo not drawn) [Example I-215]	207 to 210 °C
COc1ccc(C2C(Cc3ccccc3)=C(O)C(=O)N2c2ccc(F)cc2)cc1 (stereo not drawn) [Example I-202]	177 to 178 °C
CO/N=C(\C)c1ccc(N2C(=O)C(O)=C(C(=O)c3ccc(OC)cc3)C2c2ccc(F)cc2)cc1 (stereo not drawn) [Example I-227]	221 to 224 °C
COc1ccc(C(=O)C2=C(O)C(=O)N(c3ccc(Br)cc3)C2c2ccccc2)cc1 (stereo not drawn) [Example I-237]	233 to 236 °C
CC(C)(C)C(=O)C1=C(O)C(=O)N(c2ccc(C(F)(F)F)cc2)C1C1CCCCC1 (stereo not drawn) [Example I-56]	238 to 239 °C
COc1ccc(C(=O)C2=C(O)C(=O)N(c3ccc(C4=NCCS4)cc3)C2C2CCCCC2)cc1 (stereo not drawn) [Example I-233]	247 to 250 °C
CCOC(=O)c1ccc(N2C(=O)C(O)=C(Cc3ccccc3)C2c2ccc(OC)cc2)cc1 (stereo not drawn) [Example I-203]	160 to 161 °C
CC(C)(C)C1=NCCNC2=C1C(C1CCCCC1)N(c1ccc(-c3ccon3)cc1)C2=O (stereo not drawn) [Example I-230]	229 to 230 °C
COc1ccccc1C1c2c(C(C)(C)C)n[nH]c2C(=O)N1c1cccc(-c2ccon2)c1 (stereo not drawn) [II-8]	202 °C
COc1ccc(C(=O)C2=C(O)C(=O)N(c3ccc(C(=O)O)cc3)C2c2ccccc2)cc1 (stereo not drawn) [Example I-87]	268 to 271 °C
CCC(CC)C1C(C(=O)c2ccc(OC)cc2)=C(O)C(=O)N1c1ccc(C2=NCCS2)cc1 (stereo not drawn) [Example I-234]	230 to 233 °C
COc1ccc(C(=O)C2=C(O)C(=O)N(Cc3ccc(C(F)(F)F)cc3)C2c2ccc(F)cc2)cc1 (stereo not drawn) [Example I-204]	234 to 237 °C

Further lines, results first:

melting point	SMILES
232 to 234 °C	COc1ccc(C(=O)C2=C(O)C(=O)N(c3ccc(-c4ccon4)cc3)C2c2ccccn2)cc1 (stereo not drawn) [Example I-236]
269 to 274 °C (dec.)	COc1ccc(C(=O)C2C(=O)C(=O)N(c3ccc(-c4ccon4)cc3)C2c2ccc(F)cc2)cc1 (stereo not drawn) [Example I-18]
270 to 271 °C (dec.)	COc1ccc(C(=O)C2=C(O)C(=O)N(c3ccc(-c4ccon4)cc3)C2c2ccccc2F)cc1 (stereo not drawn) [Example I-31]
245 to 247 °C	COc1ccc(C(=O)C2=C(O)C(=O)N(c3ccc(OC)cc3)C2c2ccc(F)cc2)cc1 (stereo not drawn) [Example I-238]
238 to 240 °C	COc1ccc(C(=O)C2=C(O)C(=O)N(c3ccc(-c4ccon4)cc3)C2c2cccc(Cl)c2)cc1 (stereo not drawn) [Example I-27]
236 to 239 °C	COc1ccc(C(=O)C2=C(O)C(=O)N(c3ccc(-c4noc(C)n4)cc3)C2c2ccc(F)cc2)cc1 (stereo not drawn) [Example I-14]
254 to 258 °C (dec.)	COc1ccc(C(=O)C2C(=O)C(=O)N(c3ccc(-c4ccon4)cc3)C2c2ccccc2Cl)cc1 (stereo not drawn) [Example I-40]
245 to 247 °C	COc1ccc(C(=O)C2C(=O)C(=O)N(c3ccc(OC)cc3)C2c2ccc(F)cc2)cc1 (stereo not drawn) [Example I-73]
229 to 232 °C	COc1ccc(C(=O)C2=C(O)C(=O)N(c3ccc(C4=NCCS4)cc3)C2c2ccc(F)cc2)cc1 (stereo not drawn) [Example I-216]
268 to 272 °C	COc1ccc(C(=O)C2=C(O)C(=O)N(c3ccc(-c4ccon4)cc3)C2C2CCOCC2)cc1 (stereo not drawn) [Example I-224]
249 to 252 °C	COc1ccc(C(=O)C2=C(O)C(=O)N(c3ccc(-c4cc(C)no4)cc3)C2c2ccc(F)cc2)cc1 (stereo not drawn) [Example I-219]
238 to 240 °C	COc1ccc(C(=O)C2=C(O)C(=O)N(c3ccc(-c4ccon4)cc3)C2c2cccc(OC)c2)cc1 (stereo not drawn) [Example I-46]
164 to 166 °C	COc1ccc(-c2n[nH]c3c2C(c2ccc(F)cc2)N(c2ccc(-c4ccon4)cc2)C3=O)cc1 (stereo not drawn) [Example I-210]
244 to 247 °C	COc1ccc(C(=O)C2=C(O)C(=O)N(c3ccc(-c4nnco4)cc3)C2c2ccc(F)cc2)cc1 (stereo not drawn) [Example I-213]
245 to 246 °C	COc1ccc(C(=O)C2C(=O)C(=O)N(c3ccc(-c4cnco4)cc3)C2c2ccc(F)cc2)cc1 (stereo not drawn) [Example I-64]
273 to 274 °C (dec.)	COc1ccc(C(=O)C2=C(O)C(=O)N(c3ccc(-c4ccon4)cc3)C2c2cccc(F)c2)cc1 (stereo not drawn) [Example I-26, 5-(3-fluorophenyl)-3-hydroxy-1-(4-isoxazol-3-ylphenyl)-4-(4-methoxybenzoyl)-1,5-dihydropyrrol-2-one]
193 to 196 °C	COc1ccc(C(=O)C2=C(O)C(=O)N(c3cccc(-c4ccon4)c3)C2c2ccc(F)cc2)cc1 (stereo not drawn) [Example I-185]
271 to 274 °C	COc1ccc(C(=O)C2=C(O)C(=O)N(c3ccc(-c4ccon4)cc3)C2c2ccccc2)cc1 (stereo not drawn) [Example I-50]
253 to 254 °C	COc1ccc(C(=O)C2C(=O)C(=O)N(c3ccc(-c4cnco4)cc3)C2c2ccccc2)cc1 (stereo not drawn) [Example I-78]
241 to 244 °C	COc1ccc(C(=O)C2=C(O)C(=O)N(c3ccc(-c4ccon4)cc3)C2C(C)c2ccccc2)cc1 (stereo not drawn) [Example I-221]
268 to 270 °C (dec.)	COc1ccc(C(=O)C2=C(O)C(=O)N(c3ccc(-c4ccon4)cc3)C2c2ccc(Cl)cc2)cc1 (stereo not drawn) [Example I-11]
